Our source for the melting point and IC50 values is patent US20090137625A1, “Novel Enantiomers and Their Use as Monoamine Neurotransmitter Re-Uptake Inhibitors” (priority 2005, published 2009).

Counter-ions that a name gives are not always drawn. Like-named read-outs stand apart in the source and are kept apart here.

In data set [1] the target is T1, DA-uptake (reuptake of dopamine in synaptosomes) (Rattus norvegicus, UniProt P23977).
T1 construct: in synaptosomes as described in WO 97/16451; from tissue
Put plainly: Inhibition of dopamine (DA) reuptake in synaptosomes. In kind it is biochemical.

The target in data set [2] is T2, 5-HT-uptake (reuptake of serotonine in synaptosomes) (Rattus norvegicus, UniProt P31652).
T2 construct: in synaptosomes as described in WO 97/16451; from tissue
Description: Inhibition of serotonine (5-HT) reuptake in synaptosomes. In kind it is biochemical.

The target of data set [3] is T3, NA-uptake (reuptake of noradrenaline in synaptosomes) (Rattus norvegicus, UniProt Q9WTR4).
T3 construct: in synaptosomes as described in WO 97/16451; from tissue
Description: Inhibition of noradrenaline (NA) reuptake in synaptosomes. The class given is biochemical.

[4] abbreviates: synaptosomes, 3H-DA, read-out: DA-uptake IC50.
Setting [5] is: synaptosomes, 3H-5-HT, read-out: 5-HT-uptake IC50.
Setting [6] is: synaptosomes, 3H-NA, read-out: NA-uptake IC50.

T1 sequence (P23977 whole entry): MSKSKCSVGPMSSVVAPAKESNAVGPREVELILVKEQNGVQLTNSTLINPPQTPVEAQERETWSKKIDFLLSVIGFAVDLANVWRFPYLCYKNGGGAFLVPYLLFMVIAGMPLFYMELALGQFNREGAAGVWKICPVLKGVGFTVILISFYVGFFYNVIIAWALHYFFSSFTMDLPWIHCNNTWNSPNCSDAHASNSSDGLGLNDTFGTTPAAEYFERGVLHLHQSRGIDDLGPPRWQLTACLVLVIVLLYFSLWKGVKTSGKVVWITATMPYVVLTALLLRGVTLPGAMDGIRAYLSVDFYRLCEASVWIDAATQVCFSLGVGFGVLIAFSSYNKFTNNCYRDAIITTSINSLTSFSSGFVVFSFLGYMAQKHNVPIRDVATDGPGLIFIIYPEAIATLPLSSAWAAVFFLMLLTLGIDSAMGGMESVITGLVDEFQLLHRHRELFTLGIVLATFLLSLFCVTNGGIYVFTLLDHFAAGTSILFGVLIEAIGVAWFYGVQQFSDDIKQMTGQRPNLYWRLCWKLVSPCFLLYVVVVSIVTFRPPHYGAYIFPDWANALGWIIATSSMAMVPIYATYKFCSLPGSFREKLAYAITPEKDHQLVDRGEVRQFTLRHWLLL
T3 sequence (Q9WTR4 1-597): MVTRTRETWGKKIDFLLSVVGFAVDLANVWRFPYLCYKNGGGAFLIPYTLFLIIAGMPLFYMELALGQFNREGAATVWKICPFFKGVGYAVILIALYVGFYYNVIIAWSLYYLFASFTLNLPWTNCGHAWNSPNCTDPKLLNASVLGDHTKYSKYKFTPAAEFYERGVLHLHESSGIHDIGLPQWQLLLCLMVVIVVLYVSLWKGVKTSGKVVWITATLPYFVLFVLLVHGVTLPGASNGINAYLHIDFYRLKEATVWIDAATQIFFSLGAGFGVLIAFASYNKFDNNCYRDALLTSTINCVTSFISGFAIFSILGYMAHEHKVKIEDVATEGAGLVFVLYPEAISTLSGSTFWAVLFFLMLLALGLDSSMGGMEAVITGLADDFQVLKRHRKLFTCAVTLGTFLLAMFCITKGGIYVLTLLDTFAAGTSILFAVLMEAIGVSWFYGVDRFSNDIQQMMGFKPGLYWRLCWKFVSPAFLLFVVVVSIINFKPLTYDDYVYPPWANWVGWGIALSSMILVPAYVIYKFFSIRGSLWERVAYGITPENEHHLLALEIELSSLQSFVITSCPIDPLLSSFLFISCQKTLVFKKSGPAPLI
T2 sequence (P31652 whole entry): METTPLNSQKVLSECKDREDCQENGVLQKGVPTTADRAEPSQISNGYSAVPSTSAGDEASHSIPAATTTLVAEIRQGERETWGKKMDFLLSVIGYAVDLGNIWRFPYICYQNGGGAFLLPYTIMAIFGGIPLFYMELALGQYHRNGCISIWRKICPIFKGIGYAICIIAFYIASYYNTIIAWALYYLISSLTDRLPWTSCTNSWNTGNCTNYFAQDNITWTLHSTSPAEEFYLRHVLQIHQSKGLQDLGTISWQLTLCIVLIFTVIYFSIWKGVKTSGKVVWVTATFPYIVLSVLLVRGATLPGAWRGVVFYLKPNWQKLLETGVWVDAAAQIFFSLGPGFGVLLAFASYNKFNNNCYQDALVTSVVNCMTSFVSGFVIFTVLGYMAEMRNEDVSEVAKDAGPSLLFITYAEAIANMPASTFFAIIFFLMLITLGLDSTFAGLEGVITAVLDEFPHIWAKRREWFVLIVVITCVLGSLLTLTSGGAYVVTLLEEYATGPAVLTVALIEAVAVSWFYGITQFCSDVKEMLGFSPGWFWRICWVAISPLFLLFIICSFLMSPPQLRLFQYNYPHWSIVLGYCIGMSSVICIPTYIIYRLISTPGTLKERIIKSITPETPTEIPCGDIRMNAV

By melting point is commonly meant the temperature, or range, at which the solid turns liquid. Consider `C1=C(c2ccc3ccccc3c2)CC2CCC1N2` (single isomer, unassigned; (+)) (as salt: tartaric acid salt) [1st compound of method D, (+)-3-Naphthalen-2-yl-8-aza-bicyclo[3.2.1]oct-2-ene], for which the melting point was 183 to 189 °C.
As a reminder, the IC50 is the concentration at which inhibition is half-maximal. For `Clc1ccc(C2=CC3CCC(C2)N3)cc1` (single isomer, unassigned; (+)) [1st compound of method A, (+)-3-(4-Chlorophenyl)-8-H-8-aza-bicyclo[3.2.1]oct-2-ene], the values for the 50% inhibitory concentration (IC50) in data set [1] (setting [4]), in data set [2] (setting [5]) and in data set [3] (setting [6]) were 260 nM, 10 nM and 28 nM, respectively.
As to `C1=C(c2ccc3ccccc3c2)CC2CCC1N2` (single isomer, unassigned; (+)) [1st compound of method D, (+)-3-Naphthalen-2-yl-8-aza-bicyclo[3.2.1]oct-2-ene], the concentration for half-maximal inhibition (IC50) in data set [1] worked out at 58 nM; in data set [2], 0.34 nM; in data set [3], 13 nM.
For the molecule `CN1C2C=C(c3ccc4ccccc4c3)CC1CC2` (single isomer, unassigned; (-)) (as salt: hydrochloric acid salt) [1st compound of method E, (−)-8-Methyl-3-(naphthalen-2-yl)-8-aza-bicyclo[3.2.1]oct-2-ene], the melting point is 265 °C.
As to `CN1C2C=C(c3ccc4ccccc4c3)CC1CC2` (single isomer, unassigned; (-)) [1st compound of method E, (−)-8-Methyl-3-(naphthalen-2-yl)-8-aza-bicyclo[3.2.1]oct-2-ene], the IC50 was 34 nM in data set [1] (setting [4]), 0.23 nM in data set [2] (setting [5]) and 18 nM in data set [3] (setting [6]).
